Assay results: patent US10842772B1, “Cannabis-based bioactive formulations and methods for use thereof” (priority 2016, dated 2020)
Where a name gives a salt, the structure may show the parent alone.

Assays:
GPR55 = GPR55 (Homo sapiens, UniProt Q9Y2T6); conditions: putative new cannabinoid receptor; cited from earlier work
5-HT1A receptor = target: T1, 5-HT1A receptor (Homo sapiens, UniProt P08908); conditions: cited from earlier work
T1 sequence (P08908 1-422): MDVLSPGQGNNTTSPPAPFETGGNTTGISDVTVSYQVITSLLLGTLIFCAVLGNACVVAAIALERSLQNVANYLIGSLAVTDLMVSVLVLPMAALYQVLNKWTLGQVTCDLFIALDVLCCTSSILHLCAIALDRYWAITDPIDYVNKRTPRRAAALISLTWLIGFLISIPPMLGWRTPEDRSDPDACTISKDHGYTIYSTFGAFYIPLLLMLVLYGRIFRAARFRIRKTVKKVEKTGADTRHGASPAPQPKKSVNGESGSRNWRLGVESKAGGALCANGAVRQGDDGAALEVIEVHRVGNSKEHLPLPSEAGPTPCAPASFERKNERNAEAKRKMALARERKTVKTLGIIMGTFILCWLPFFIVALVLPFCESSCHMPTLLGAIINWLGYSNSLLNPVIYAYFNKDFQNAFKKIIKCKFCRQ

CB1 and CB2 receptors = conditions: cited from earlier work
[1] = cited from earlier work
[2] = tested on: patients experiencing ADHD-related symptoms or ASD-related symptoms; test: Example 3: group study, THC versus placebo; format: in vivo, human; conditions: THC or Marinol versus placebo; re-evaluation after 2-3 weeks adjustment
Experimental: In patients experiencing ADHD-related symptoms or ASD-related symptoms, obtain baseline measures (using, reports, observations or tests described above) of the symptoms and deficits commonly associated with the conditions. Administer THC, or a synthetic substitute such as Marinol® at a specific dose, to half of the group and administer a placebo to the remainder of the participants. The group that is administered THC should be allowed at least 2-3 weeks to acclimate to THC. After the several week adjustment period, all patients should be re-evaluated using the same or similar tests, observations and reports upon which initial measures of symptoms and deficits were made.

CB2 receptor = CB2 receptor (Homo sapiens, UniProt P34972); conditions: cited from earlier work
CB2 receptor, sequence (P34972 whole entry): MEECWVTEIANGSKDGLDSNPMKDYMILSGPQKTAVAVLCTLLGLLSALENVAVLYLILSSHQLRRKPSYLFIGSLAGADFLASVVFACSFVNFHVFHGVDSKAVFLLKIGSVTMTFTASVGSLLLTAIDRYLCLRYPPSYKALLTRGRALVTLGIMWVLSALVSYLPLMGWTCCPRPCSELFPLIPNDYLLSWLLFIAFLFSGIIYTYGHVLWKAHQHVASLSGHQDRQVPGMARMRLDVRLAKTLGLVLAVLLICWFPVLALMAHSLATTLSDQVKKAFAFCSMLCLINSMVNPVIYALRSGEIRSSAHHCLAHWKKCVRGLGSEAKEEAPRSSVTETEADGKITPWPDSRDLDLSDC

[3] = tested on: Patient 1 (anxiety, depression, OCD, ADHD-related symptoms); test: Example 2: treatment of Patient 1 with THC (vaporized, then edible); format: in vivo, human
Experimental: Following cessation of efficacy of Zoloft, Patient 1 obtained a prescription for medical marijuana. Patient 1 began by vaporizing marijuana buds and later vaporizing THC wax and oil concentrates.
Patient 1 began consuming THC in edible form at doses ranging from 10-35 mg every 4-6 hours. Initially, Patient 1 consumed 10-20 mg for approximately 1-2 months, and then increased the dose to 30-35 mg. […] Patient 1 used orally consumed THC as a medicament for at least 9 months during which time they observed and recorded the changes in their mood, movements, cognition and behavior while practicing law working, raising children, and otherwise functioning in their daily life. […] Patient 1 continued to use the SSRI Zoloft during approximately the first 2 months of this 9-month period, but thereafter discontinued the use of Zoloft.
Patient 1 reports that symptom relief seems tied to THC's slowing of their perception of time, which results in cascading (positive) effects on their mood, movements, cognition and behavior.

[4] = tested on: Patient 1 (anxiety, depression, OCD, substance abuse, ADHD); test: Example 1: treatment of Patient 1 with Zoloft; format: in vivo, human
Experimental: Patient 1 was also a regular user of alcohol and a recreational user of cocaine. Patient 1 was prescribed selective serotonin reuptake inhibitor (SSRI) Zoloft, at 25 mg with doses increasing up to 200 mg over the course of approximately 6-8 months. The dose of Zoloft/sertraline used was 25-200 mg.

[5] = THC in edible form 10-35 mg every 4-6 hours

GPR55, sequence (Q9Y2T6 whole entry, species assumed): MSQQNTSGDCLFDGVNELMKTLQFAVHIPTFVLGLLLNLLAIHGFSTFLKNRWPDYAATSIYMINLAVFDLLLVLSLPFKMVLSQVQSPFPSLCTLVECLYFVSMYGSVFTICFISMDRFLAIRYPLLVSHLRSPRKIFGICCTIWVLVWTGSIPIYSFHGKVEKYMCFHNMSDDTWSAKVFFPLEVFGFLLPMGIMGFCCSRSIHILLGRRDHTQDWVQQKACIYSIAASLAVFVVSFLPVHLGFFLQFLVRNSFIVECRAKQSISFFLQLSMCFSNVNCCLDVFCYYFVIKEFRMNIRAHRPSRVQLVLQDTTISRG

For `C=C(C)[C@@H]1CCC(C)=C[C@H]1c1c(O)cc(CCCCC)cc1O` [CBD, cannabidiol], the “activity at GPR55” value (GPR55) is given as “antagonist”, the “activity at 5-HT1A receptor” value (5-HT1A receptor) is given as “agonist” and the “affinity for CB1 and CB2 receptors” value (CB1 and CB2 receptors) is given as “little affinity”. The “relative affinity for CB1 versus CB2 receptor” value (CB1 and CB2 receptors) was “greater affinity for the CB2 receptor”.
For `CCCCCc1cc(O)c2c(c1)OC(C)(C)[C@@H]1CCC(C)=C[C@@H]21` [THC, (−)-(6aR,10aR)-6,6,9-trimethyl-3-pentyl-6a,7,8,10a-tetrahydro-6H-benzo[c] chromen-1-ol], the peak plasma time ([1]; Absorption) is listed as 0.5 to 4 h, the protein bound ([1]; Distribution) is listed as 90-99% and the “excretion: feces” value ([1]; Elimination) is listed as 50%. For the same compound, the “excretion: urine” value ([1]; Elimination) was 15%, the “half-life, parent drug” value ([1]; Elimination) was 25 to 36 h and the renal clearance ([1]; Elimination) was 18 to 20 mL/min. The total body clearance ([1]; Elimination) was 3.3 mL/min/kg, the Metabolism ([1]; in vivo) was “extensive first-pass hepatic metabolism” and the “symptoms and deficits associated with ASD and ADHD” value [2] was “reduce or eliminate”. The “relative affinity for CB1 versus CB2 receptor” value (CB1 and CB2 receptors) was “approximately equal affinity”, the “activity at CB2 receptor” value (CB2 receptor) was “partial agonist” and the “OCD and ADHD-related symptoms” value [3, 5] was “elimination”. For the same compound, the “ability to focus and concentrate on reading, writing, and interpersonal interactions” value [3, 5] was “increased ability to focus and concentrate”, the “anxiety, depression” value [3, 5] was “significant reduction” and the perception of time [3, 5] was “slowed perception of time”. For the same compound, the side effects ([3]; edible THC, after initial adjustment period of approximately 2 weeks) was “No significant side effects”, the “ability to read body language and facial expressions” value ([3]; orally-consumed THC) was “increase in their ability to read body language and facial expressions” and the “alcohol and cocaine use” value ([3]; orally-consumed THC) was “rarely consumed alcohol and stopped using cocaine”. The “coordination and balance, fine motor skills” value ([3]; orally-consumed THC) was “improvements in coordination and balance”, the “interpersonal relationships at home and in the workplace” value ([3]; orally-consumed THC) was “improvement in interpersonal relationships” and the “propensity to interrupt while orally communicating” value ([3]; orally-consumed THC) was “reduced propensity to interrupt”. The “sensitivity to peripheral noise and other distractions” value ([3]; orally-consumed THC) was “reduction in sensitivity” and the “visualizing images described in writings, sense of direction” value ([3]; orally-consumed THC) was “increased ability to visualize images described in writings and an improved sense of direction”.
With `CN[C@H]1CC[C@@H](c2ccc(Cl)c(Cl)c2)c2ccccc21` [Zoloft, sertraline HCl] the “treating anxiety, depression, OCD, substance abuse and ADHD” value ([4]; 25 mg increasing up to 200 mg over 6-8 months, at initial dose and each incremental increase) was “initially effective” and the persistence of effects ([4]; 25-200 mg, after dosage increases) was “effects wore off at varying intervals”.
